Measurements: article PMC11289166 (Biochemistry, 2024)
“Also recorded” adds a separate entry of the source. Ends that are not written are not given here. * marks the point of attachment. MTSL = nitroxide spin label, CC1(C)C=C(CS*)C(C)(C)N1[O]

Tests used:
CRYΔ (residues 1-520) = CRYΔ (residues 1-520) (Drosophila melanogaster, UniProt O77059); format: binding; details: fluorescence polarization; dark and light
CRY Asn253Ala/Gln254Ala [1] = biological target: T1, CRY Asn253Ala/Gln254Ala (Drosophila melanogaster, UniProt O77059, N253A/Q254A); format: binding; details: fluorescence polarization; dark and light
T1 sequence (O77059 1-539 N253A/Q254A): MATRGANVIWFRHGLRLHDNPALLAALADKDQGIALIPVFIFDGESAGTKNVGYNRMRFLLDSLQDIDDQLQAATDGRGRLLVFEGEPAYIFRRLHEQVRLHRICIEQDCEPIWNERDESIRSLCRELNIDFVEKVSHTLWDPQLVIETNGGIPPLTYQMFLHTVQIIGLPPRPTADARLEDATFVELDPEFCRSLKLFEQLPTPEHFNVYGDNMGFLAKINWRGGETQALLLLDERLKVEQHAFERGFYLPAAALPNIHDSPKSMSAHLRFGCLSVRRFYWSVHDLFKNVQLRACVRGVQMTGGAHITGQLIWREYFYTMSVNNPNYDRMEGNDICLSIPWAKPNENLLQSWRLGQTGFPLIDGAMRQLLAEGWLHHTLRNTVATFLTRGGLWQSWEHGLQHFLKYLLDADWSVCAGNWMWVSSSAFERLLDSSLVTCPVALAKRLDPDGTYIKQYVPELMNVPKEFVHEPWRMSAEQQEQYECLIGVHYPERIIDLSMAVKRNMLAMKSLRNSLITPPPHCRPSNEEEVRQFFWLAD

[2] = biological target: CRY Full-Length (residues 1-539) (Drosophila melanogaster, UniProt O77059); format: binding; details: fluorescence polarization; dark and light
CRY Full-Length (residues 1-539), sequence (O77059 1-539): as the sequence (O77059 1-539 N253A/Q254A) above, with A253N, A254Q counted along it

CRY Arg237Ala = CRY Arg237Ala (Drosophila melanogaster, UniProt O77059, R237A); format: binding; details: fluorescence polarization; dark and light
CRY Arg237Ala, sequence (O77059 1-539 R237A): as the sequence (O77059 1-539 N253A/Q254A) above, with R237A, A253N, A254Q counted along it

CRY Asn253Ala/Gln254Ala [3] = biological target: T1, CRY Asn253Ala/Gln254Ala; details: DEER; light state and dark-state proxy; compared with WT CRYΔ
CRYΔ = details: ref [20]-[22]; cited from earlier work

CRYΔ (residues 1-520), sequence (O77059 1-520, stated change not applied): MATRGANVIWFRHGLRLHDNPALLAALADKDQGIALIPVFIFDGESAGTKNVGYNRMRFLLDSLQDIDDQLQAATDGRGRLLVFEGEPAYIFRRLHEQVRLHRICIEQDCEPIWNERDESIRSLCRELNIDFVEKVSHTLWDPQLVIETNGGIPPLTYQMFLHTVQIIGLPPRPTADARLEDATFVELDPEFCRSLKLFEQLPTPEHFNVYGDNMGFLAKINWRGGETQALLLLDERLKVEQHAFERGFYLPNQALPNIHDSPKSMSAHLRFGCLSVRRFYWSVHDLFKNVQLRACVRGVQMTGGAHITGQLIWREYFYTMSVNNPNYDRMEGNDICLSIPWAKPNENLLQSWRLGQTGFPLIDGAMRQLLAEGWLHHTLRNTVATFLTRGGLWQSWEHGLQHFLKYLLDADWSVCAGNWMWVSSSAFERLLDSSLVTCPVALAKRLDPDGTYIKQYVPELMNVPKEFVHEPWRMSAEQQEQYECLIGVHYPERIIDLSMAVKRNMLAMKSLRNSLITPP

MDWLLATPQLYSAFSSLGC [S-TIMN]
binding to CRYΔ (in words) (CRYΔ (residues 1-520)): bound S-TIMN in both dark and light, but with somewhat higher affinity in the light; also recorded: reasonably high affinity in the dark and even tighter affinity in the light; also recorded: more strongly in light than dark | binding to Asn253Ala/Gln254Ala (in words) (CRY Asn253Ala/Gln254Ala [1]): bound both in dark and light, with stronger binding and a larger fraction of binding in the dark | binding to full-length CRY (in words) [2]: bound to full-length CRY (residues 1-539) only in light with an affinity similar to that seen for CRYΔ in light | binding to Arg237Ala (in words) (CRY Arg237Ala): no detectable binding of S-TIMN in either dark or light; also recorded: does not bind to CRY in either dark or light

S-TIMN-SL: S-TIMN spin-labeled with MTSL (MDWLLATPQLYSAFSSLGC(MTSL))
interaction of spin-labeled S-TIMN with Asn253Ala/Gln254Ala (in words) (CRY Asn253Ala/Gln254Ala [3]): considerably different than that observed for WT CRYΔ

B1: full-length TIM: Drosophila core oscillator protein Timeless (protein, UniProt P49021 1-1398, looked up)
chain: MDWLLATPQLYSAFSSLGCLEGDTYVVNPNALAILEEINYKLTYEDQTLRTFRRAIGFGQNVRSDLIPLLENAKDDAVLESVIRILVNLTVPVECLFSVDVMYRTDVGRHTIFELNKLLYTSKEAFTEARSTKSVVEYMKHILESDPKLSPHKCDQINNCLLLLRNILHIPETHAHCVMPMMQSMPHGISMQNTILWNLFIQSIDKLLLYLMTCPQRAFWGVTMVQLIALIYKDQHVSTLQKLLSLWFEASLSESSEDNESNTSPPKQGSGDSSPMLTSDPTSDSSDNGSNGRGMGGGMREGTAATLQEVSRKGQEYQNAMARVPADKPDGSEEASDMTGNDSEQPGSPEQSQPAGESMDDGDYEDQRHRQLNEHGEEDEDEDEVEEEEYLQLGPASEPLNLTQQPADKVNNTTNPTSSAPQGCLGNEPFKPPPPLPVRASTSAHAQMQKFNESSYASHVSAVKLGQKSPHAGQLQLTKGKCCPQKRECPSSQSELSDCGYGTQVENQESISTSSNDDDGPQGKPQHQKPPCNTKPRNKPRTIMSPMDKKELRRKKLVKRSKSSLINMKGLVQHTPTDDDISNLLKEFTVDFLLKGYSYLVEELHMQLLSNAKVPIDTSHFFWLVTYFLKFAAQLELDMEHIDTILTYDVLSYLTYEGVSLCEQLELNARQEGSDLKPYLRRMHLVVTAIREFLQAIDTYNKVTHLNEDDKAHLRQLQLQISEMSDLRCLFVLLLRRFNPSIHSKQYLQDLVVTNHILLLILDSSAKLGGCQTIRLSEHITQFATLEVMHYYGILLEDFNNNGEFVNDCIFTMMHHIGGDLGQIGVLFQPIILKTYSRIWEADYELCDDWSDLIEYVIHKFMNTPPKSPLTIPTTSLTEMTKEHNQEHTVCSWSQEEMDTLYWYYVQSKKNNDIVGKIVKLFSNNGNKLKTRISIIQQLLQQDIITLLEYDDLMKFEDAEYQRTLLTTPTSATTESGIEIKECAYGKPSDDVQILLDLIIKENKAQHLLWLQRILIECCFVKLTLRSGLKVPEGDHIMEPVAYHCICKQKSIPVVQWNNEQSTTMLYQPFVLLLHKLGIQLPADAGSIFARIPDYWTPETMYGLAKKLGPLDKLNLKFDASELEDATASSPSRYHHTGPRNSLSSVSSLDVDLGDTEELALIPEVDAAVEKAHAMASTPSPSEIFAVPKTKHCNSIIRYTPDPTPPVPNWLQLVMRSKCNHRTGPSGDPSDCIGSSSTTVDDEGFGKSISAATSQAASTSMSTVNPTTTLSLNMLNTFMGSHNENSSSSGCGGTVSSLSMVALMSTGAAGGGGNTSGLEMDVDASMKSSFERLEVNGSHFSRANNLDQEYSAMVASVYEKEKELNSDNVSLASDLTRMYVSDEDDRLERTEIRVPHYH
modifications: full-length
binding of TIM to CRYΔ (in words) (CRYΔ): binds TIM in both dark and light
